The values that follow come from patent US6365634B1, “Naturally occurring compounds and their derivatives as cyclooxygenase 2 and/or 5-lipoxygenase inhibitors” (C-P Technology Limited Partnership, priority 1997, dated 2002).

The target in the test is T1, ovine COX I (Ovis aries, UniProt P05979).
T1 construct: a ram seminal vesicle preparation enriched in COX I (Biomol) was used; tissue Biomol; host or cells: ram seminal vesicle
T1 sequence (P05979 25-600): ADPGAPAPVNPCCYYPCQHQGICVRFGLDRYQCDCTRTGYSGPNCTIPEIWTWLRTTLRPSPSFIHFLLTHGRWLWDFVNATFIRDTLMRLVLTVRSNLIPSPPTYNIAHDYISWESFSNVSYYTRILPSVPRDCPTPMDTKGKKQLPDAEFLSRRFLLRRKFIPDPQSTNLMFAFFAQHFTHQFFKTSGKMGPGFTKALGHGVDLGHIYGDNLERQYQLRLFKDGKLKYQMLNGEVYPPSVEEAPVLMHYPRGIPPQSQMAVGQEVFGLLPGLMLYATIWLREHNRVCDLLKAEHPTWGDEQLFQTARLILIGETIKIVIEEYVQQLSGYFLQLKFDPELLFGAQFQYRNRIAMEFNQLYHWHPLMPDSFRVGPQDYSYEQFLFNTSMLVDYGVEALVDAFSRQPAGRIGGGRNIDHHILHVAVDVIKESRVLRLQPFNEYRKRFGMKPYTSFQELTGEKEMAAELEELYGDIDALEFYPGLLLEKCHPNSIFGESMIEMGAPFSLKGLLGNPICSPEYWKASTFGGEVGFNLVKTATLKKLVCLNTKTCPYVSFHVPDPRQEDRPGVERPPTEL
Kind of test: COX I biochemical assay (ram seminal vesicle preparation). How it is done:
Both the COX I and COX II assays were performed using modified versions of previously reported methods (Corey, E. J., Shih, C., and Cashman, J. R., 1983 Proc. Natl. Acad. Sci. v80, p3; Sigal, E., Grunberger, D., Cashman, J. R., Craik, C. S., Caughey, G. H., and Nadel, J. A., 1988 Biochem. Biophys. Res Comm. v150(1), p376). To assess for the presence of compounds in the peat bog extracts that were capable of inhibiting COX II, purified human recombinant COX II (Oxford Chemical) was suspended in 50 uL of COX assay buffer (50 mM Tris, pH 8.0) containing 0.2 mM hydroquinone, 5.0 mM tryptophan, 1.0 uM hematin, and 1.0 mM glutathione. […]
The assessment of cyclooxygenase activity (both COX I and II) in the presence and absence of the peat bog extracts was based on the quantitation of tlhe radiolabeled arachidonic acid metabolites prostaglandin A2 (PGA2), PGE2, and PGF2-alpha. […] The bands were visualized by UV-vis or I2 staining and scraped into scintillation vials for quantitation. […] The total enzyme activity (At), the corrected enzyme activity in the presence of an inhibitor (Ai), and % inhibition were calculated by the following equations: […]
The inhibitory activity of dehydroabietic acid methyl ester was assessed by performing biochemical assays that utilized 1) human recombinant COX II, 2) ovine COX I, and 3) rabbit reticulocyte 15-LO. […]

SMILES strings stand for the structures.

Turning to `CC(C)(c1ccccc1)c1ccc(O)cc1` [4-Cumylphenol, 4-cumylphenol], the “Percent Inhibition of COX I” value (pure 4-cumylphenol, assay as Example 2B, concentration not given) is recorded as 1.6%. As to `COC(=O)[C@]1(C)CCC[C@]2(C)c3ccc(C(C)C)cc3CC[C@@H]12` [Dehydroabietic acid methyl ester, dehydroabietic acid methyl ester], the “Percent Inhibition of COX I” value (final concentration of 250 uM) stood at 0.2%.
